Assay results published in US20230095021A1, “MODULATORS OF TDP-43” (Alteron Therapeutics, Inc., priority 2019, published 2023).

What was measured:
TDP-43 = molecular target: T1, TDP-43 (Homo sapiens, UniProt Q13148); assay: Solid phase compound-protein complex pull-down with mass spectrometry protein identification; type: binding; conditions: precipitated proteins from PLC/PRF/5 and MDA-MB-231 cell lysates
T1 construct: added to whole cell lysate containing 5 mg protein; endogenous in cells; host or cells: MDA-MB-231 and PLC/PRF/5 whole cell lysates
Procedure: MDA-MB-231 and PLC/PRF/5 cells were maintained at 37° C. in a CO2 incubator in Dulbecco's Modified Eagle's Medium (DMEM) supplemented with 10% fetal bovine serum (FBS) and 1% of penicillin/streptomycin (Invitrogen).
The cells were lysed in lysis buffer containing 20 mM 4-(2-hydroxyethyl)-1-piperazineethanesulfonic acid (HEPES), pH 7.5, 0.3% 3-[(3-cholamidopropyl)dimethylammonio]-1-propanesulfonate (CHAPS), 150 mM NaCl, (Sigma-Aldrich), and protease inhibitor cocktail (Roche) with rotation at 4° C. for one hour followed by centrifugation at 15000 for 20 minutes. Ten milligrams of ALT-59 dissolved in DMSO at 20 mM were added to whole cell lysate containing 5 mg protein and incubated on ice for one hour. Compound precipitates out due to high hydrophobicity. Compound-protein complex were spun down at 1000 rpm and washed 5 times with lysis buffer to remove unbound protein. The compound-protein complex were boiled in SDS-PAGE protein sample buffer (1×) (80 mM Tris-HCl, pH 6.8, 2% SDS, 10% Glycerol, 0.1% Bromophenol blue.
For silver staining, proteins were separated on a 10% SDS-PAGE gel. To prepare samples for protein identification using mass spectrometry, protein samples were run into stacking gel and the electrophoresis was stopped after samples were compressed into single bands. […]

POLDIP3 exon 3 = POLDIP3 exon 3 splicing, RT-PCR; type: cell-based; conditions: MDA-MB-231 cells
Procedure: Long stretches of TG repeats are found in exon 9 and intron 9 of Lamp2 gene. A shorter stretch is located in intron 10. […] RT-PCR analysis was performed to test if ALT-59 treatment affects LAMP2 alternative splicing. MDA-MB-231 cells were cultured as described above and treated with DMSO or 6 μM ALT-59. Total RNA was extracted using the RNeasy Mini Kit (Qiagen) and equal amount of RNA was reverse transcribed using the SuperScript III First-Strand Synthesis System (Invitrogen). PCR reactions were performed using forward primer located on exon 1 and a reverse primer located on exon 11. PCR samples were resolved in a 1.2% agarose gel and stained with ethidium bromide.
It has been reported that TDP-43 causes CFTR exon 9 skipping, ApoA2 exon 3 skipping, and POLDIP3 exon 3 inclusion. Additional experiments were performed to further confirm that TDP-43 is the target of ALT-59. RT-PCR analysis was performed as described above using the following primers for the three genes. PCR samples were analyzed by polyacrylamide gel electrophoresis and stained with ethidium bromide.

CFTR = CFTR protein levels, Western blot in U-87 MG cells; type: cell-based
Procedure: Additional experiments were performed to determine how ALT-59 treatment affects CFTR protein levels. U-87 MG cells were maintained at 37° C. in a CO2 incubator in Dulbecco's Modified Eagle's Medium (DMEM) supplemented with 10% fetal bovine serum (FBS) and 1% of penicillin/streptomycin (Invitrogen), and were treated with DMSO, 3 μM, or 6 μM ALT-59. Cells were lysed using RIPA buffer (25 mM Tris, pH 7.4, 150 mM NaCl, 0.1% SDS, 0.5% sodium deoxycholate, 1% Triton X-100, Complete protease inhibitor cocktail). Western blotting was performed using anti-CFTR (Novus Biologicals) and anti-beta-actin (Sigma-Aldrich) antibodies. Images were obtained using Odyssey imager and quantified using the Odyssey software (LI-COR).

Phe508del-CFTR = Phe508del-CFTR localization, immunofluorescence microscopy, primary bronchial epithelial cells of a cystic fibrosis patient; type: cell-based, human; conditions: primary bronchial epithelial cells homozygous for Phe508del-CFTR, 4 μM, 3 days
Procedure: MDA-MB-231 and U-87 MG cells were cultured on cover slips under the conditions as described above. Cells were treated with DMSO or 4 μM ALT-59 for 3 days. Primary human bronchial epithelial cells isolated from cystic fibrosis patient homozygous for Phe508del-CFTR (Lifeline Cell Technology) were cultured on cover slips in BronchiaLife Cell Culture Medium supplemented with BrochiaLife LifeFactors Kit (Lifeline Cell Technology) and maintained at 37° C. in a CO2 incubator. Cells were treated with DMSO, 4 μM ALT-59, 2 μM ALT-308, or 4 μM ALT-410 for 3 days.
Cells were fixed in 4% paraformaldehyde for 15 minutes and permeabilized in 0.1% Triton X-100 for 2 minutes. After being blocked in 5% BSA (Sigma-Aldrich), cells were incubated with anti-CFTR antibody (Alomone Labs) followed by Alexa Fluor 488 anti-rabbit secondary antibody. Reagents were buffered in GIBCO PBS (Phosphate-Buffered Saline). Images were taken using Carl Zeiss LSM 510 Laser Scanning Microscope. Parameters were set identical for all images.

Tau = Tau expression, Western blot in U-87 MG cells; type: cell-based; conditions: 2 days
Procedure: (§1) U-87 MG and T98G cells were maintained at 37° C. in a CO2 incubator in Dulbecco's Modified Eagle's Medium (DMEM) supplemented with 10% fetal bovine serum (FBS) and 1% of penicillin/streptomycin (Invitrogen). Cells were treated with DMSO, 3 μM, or 6 μM ALT-59 for 2 days and subjected to Western blotting analysis using the indicated antibodies. Protein bands were quantified using the ImageJ software.

BACE1 [1] = assay: BACE1 expression, Western blot in T98G cells; type: cell-based; conditions: 2 days
Procedure: as §1

BACE1 [2] = assay: Screening for ALT-59 derivatives with BACE1 protein levels as indicator, U-87 MG cells; type: cell-based; conditions: 2 days, concentrations as indicated in FIGS. 15-17
Procedure: Additional experiments were performed to screen for compounds with higher potency and the ability to penetrate blood brain barrier using BACE1 protein levels as an indicator. U-87 MG cells were cultured as described previously and treated for 2 days with compounds at concentrations as indicated in FIGS. 15-17. Cells were then subjected to Western blotting analysis using anti-BACE1 and anti-beta-actin antibodies.

[3] = system: transgenic C. elegans expressing full-length (wild-type) human TDP-43; assay: Paralysis caused by hTDP-43 expression in C. elegans; type: in vivo; conditions: 10 μM ALT-59 in NGM plates
Procedure: Wild-type N2 strain or transgenic C. elegans expressing full-length (wild-type) human TDP-43 (strain number, CL6049, Caenorhabditis Genetics Center, Minneapolis, Minn.) were placed on freshly prepared Nematode Growth Medium (NGM) petri plates with or without 10 μM ALT-59.
Uncoordinated phenotypes were imaged, and movement deficits were quantified by counting body thrashes in liquid after recording under an inverted microscope.

T1 sequence (Q13148 whole entry): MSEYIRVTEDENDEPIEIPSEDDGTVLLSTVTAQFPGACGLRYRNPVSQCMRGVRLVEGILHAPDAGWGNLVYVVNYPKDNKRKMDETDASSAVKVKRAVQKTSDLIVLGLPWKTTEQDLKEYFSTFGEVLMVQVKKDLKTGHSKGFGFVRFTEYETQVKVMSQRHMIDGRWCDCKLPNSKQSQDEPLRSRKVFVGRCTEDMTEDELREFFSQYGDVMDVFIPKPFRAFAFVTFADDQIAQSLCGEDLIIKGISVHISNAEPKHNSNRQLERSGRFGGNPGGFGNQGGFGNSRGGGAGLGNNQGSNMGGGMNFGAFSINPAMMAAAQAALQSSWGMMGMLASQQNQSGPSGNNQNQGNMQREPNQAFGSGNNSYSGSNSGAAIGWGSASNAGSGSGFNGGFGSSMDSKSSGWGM

CN(C)c1ccc(C2Nc3ccc4ccccc4c3C3=C2C(=O)CC(C)(C)C3)cc1Br (stereo not drawn) [ALT-59, 5-(3-bromo-4-(dimethylamino)phenyl)-2,2-dimethyl-2,3,5,6-tetrahydrobenzo[a]phenanthridin-4(1H)-one]
ALT-59 binding proteins identified by mass spectrometry (TDP-43): TDP-43 (boxed) was ranked as the top hit | splicing of POLDIP3 exon 3 (POLDIP3 exon 3): remain unchanged | increase of CFTR300 level (CFTR; 3 μM): 10 fold | level of CFTR160 (CFTR; 3 μM): did not affect | increase of CFTR160 level (CFTR; 6 μM): 30% | increase of CFTR240 level (CFTR; 6 μM): 3 fold | increase of CFTR300 level (CFTR; 6 μM): 18 fold | localization of Phe508del-CFTR on the plasma membrane (Phe508del-CFTR): increased localization of Phe508del-CFTR on the plasma membrane | reduction of Tau expression (Tau; 3 μM): 52% | reduction of Tau expression (Tau; 6 μM): 38% | reduction of BACE1 expression (BACE1 [1]; 3 μM): 31% | reduction of BACE1 expression (BACE1 [1]; 6 μM): 53% | BACE1 protein expression (BACE1 [2]): capable of lowering BACE1 expression | coiled body posture and uncoordinated phenotype [3]: rescued the coiled body posture and uncoordinated phenotype | percentage of paralysis ([3]; without treatment 93%): 29.5%
